Experimental data reported in paper PMC10223284, “Category-Based Toxicokinetic Evaluations of Data-Poor Per- and Polyfluoroalkyl Substances (PFAS) using Gas Chromatography Coupled with Mass Spectrometry” (Toxics, 2023).
Several values for one entry are separate records, joined by “and”; a condition that tells them apart may be missing. Equal entries are not always repeated. Where two headings read alike, the source gives them in different places.

Legend:
human plasma [1] = details: cited from earlier work
[2] = In vitro-in vivo extrapolation (IVIVE) to Css and administered equivalent dose (AED); design: species or system human; details: for Clhep: IVIVE, hepatocyte Clint scaled to whole-liver clearance; for AED: administered equivalent dose from LOEC and Css; for Fub: fub=fup/(B:P), Fub set to 1 if needed; for CLint: scaled with HPGL 110 mill cells/g, Vl 1596 g
Method in brief: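 Administered equivalent doses come from pairing modelled Css with literature in vitro LOECs. Css itself is predicted by IVIVE from experimental hepatic Clint, scaled up to whole-liver clearance in L/h, and experimental fraction unbound in plasma. That fraction was adjusted to unbound-in-blood via blood:plasma partitioning.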

human plasma [3] = assay: Ultracentrifugation (UC) plasma protein binding assay, fraction unbound in plasma (fup); details: for Mean fu: fraction unbound in human plasma, used for IVIVE
[4] = system: pooled human cryopreserved primary hepatocyte suspensions; details: cited from earlier work
human primary cells = details: cited from earlier work
[5] = Hepatic metabolic stability (hepatocyte clearance) assay, substrate depletion; type: in vitro ADME, human; details: both sexes, human
Method in brief: (§1)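 Substrate depletion of 1 μM compound, 37 °C, with pooled human hepatocytes (50-donor, 50,000 cells/100 μL) in William's E; samples quenched in acetonitrile up to 240 min, triplicate time points. Intrinsic clearance (μL/min/million hepatocytes) and half-life derived from semi-log slope, background-adjusted using media-only and inactivated-cell controls; compounds with ≥50% abiotic loss at T120 excluded.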

[6] = system: pooled human cryopreserved primary hepatocyte suspensions; assay: as above; type: in vitro ADME; details: for Linear Regression Results, Best-Fit Values, Slope: hepatocyte time course
Method in brief: as §1

in vitro [7] = details: both, human, plasma
human plasma [8] = system: human plasma
[9] = Abiotic loss in negative controls of the hepatocyte clearance assay (cell-free media, metabolically inactivated hepatocytes); type: in vitro ADME; details: for No Cells BkgdCl, Clearance / HT BkgdCl, Clearance / Hep_Stab_Fail: 1 μM; for HT BkgdCl, Clearance / Hep_Stab_Fail: both; for Hep_Stab_Fail: 120 min; for HT BkgdCl, Slope: heat treated hepatocytes control; for HT BkgdCl, Slope / No Cells BkgdCl, Slope: 0 vs 240 min; for No Cells BkgdCl, Slope: no cells control
Method in brief: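 Abiotic stability was checked with media-only and inactivated-hepatocyte controls, run at T0 and T240 or, on rerun, at more time points. Compound at 1 μM, 37 °C, acetonitrile quench. Loss rates served for background subtraction, and ≥50% loss by T120 meant exclusion.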

human plasma [10] = details: for PPB_Stab_Fail: plasma
in vitro [11] = details: both, human, plasma; remark: listed apart in the source
human plasma [12] = assay: Chemical stability in plasma over the UC assay time course (T5hr/T1hr)
[13] = Ultracentrifugation (UC) plasma protein binding assay, fraction unbound in plasma (fup); details: both, human, plasma
[14] = legacy PFAS included for comparison
[15] = Assuming 1 mg/kg/day dose rate, BW 70 kg
[16] = human steady-state plasma concentration, assuming 1 mg/kg/day dosage
[17] = BioSeek lowest-observed effect concentration used for AED
[18] = minimum lowest-observed effect concentration, BioSeek platform
[19] = hepatocytes, Bkgd-Sub Clearance (µL/min/106 hepatocytes)
[20] = hepatocytes, Linear Regression Results, Best-Fit Values, Clearance
[21] = hepatocytes, Unadj in vitro Clint

N.O=C(O)C(F)(F)C(F)(F)C(F)(F)C(F)(F)C(F)(F)C(F)(F)C(F)(F)F [Ammonium perfluorooctanoate (PFOA), Ammonium perfluorooctanoate, reference compound]
fup (human plasma [1]; [14]): 0.0006
Css [2, 15]: 282.38 mg/L and 681.96 uM
Clhep [2]: 0.003 L/h
AED [2]: 0.0029 mg/kg/day
Fub [2]: 0.001091
Css [2, 16]: 681.96 µM
Css ([2]; human steady-state plasma concentration, assuming 1 mg/kg/day dosage, listed as PFOA): 682 µM
CLint [2]: 47401.2 µL/min
Mean fu (human plasma [3]): 0.0006
In Vitro Clint [4, 14]: 0.27 μL/min/10^6 cells
LOEC (human primary cells; [17]): 2.00 µM
LOEC (human primary cells; [18]): 2 µM

OCC(F)(F)OC(F)(F)C(F)(F)OC(F)(F)C(F)(F)OC(F)(F)CO [1H,1H,11H,11H-Perfluorotetraethylene glycol]
Css [2, 15]: 0.61 mg/L and 1.50 uM
Clhep [2]: 4.634 L/h
AED [2]: 1.3364 mg/kg/day
Fub [2]: 0.02327
Css [2, 16]: 1.50 µM
CLint [2]: 3498911 µL/min
half-life at 1 μM ([5]; hepatocytes): 0.951 h
hepatocyte CLint at 1 μM [5, 19]: 19.9 µL/min/1e6 cells
hepatocyte CLint at 1 μM ([5]; hepatocytes, In Vitro Clint): 19.9 µL/min/1e6 cells
hepatocyte CLint at 1 μM [5, 20]: 24.3 µL/min/1e6 cells
hepatocyte CLint at 1 μM ([5]; hepatocytes, Unadj Clint): 24.3 µL/min/1e6 cells
hepatocyte CLint at 1 μM [5, 21]: 24.3 µL/min/1e6 cells
hepatocyte CLint at 1 μM ([5]; hepatocytes, clearance rate in hepatocytes): 20 µL/min/1e6 cells
hepatocyte CLint at 1 μM ([5]; s9, Clint.1.Med): 5.23 µL/min/1e6 cells
Concentration (nM), Time 240 min ([6]; both, human, 240 min, 1 μM): 88.3883 nM
Linear Regression Results, Best-Fit Values, Slope [6]: -0.01215
fraction unbound at 5 h, 10 μM (in vitro [7]; Fraction Unbound (fu), replicates A, B, C): 0.0147
fraction unbound at 5 h, 10 μM (in vitro [7]; Mean Fu): 0.013
fraction unbound at 5 h, 10 μM (in vitro [7]; Mean fu): 0.0128
Fup.Med (human plasma [8]; both, human, 5 h, 10 μM): 0.0115
Fup.point (human plasma [8]; both, human, 5 h, 10 μM): 0.0127
No Cells BkgdCl, Clearance [9]: 4.374
half-life at 1 μM ([9]; both sexes, human, hepatocytes): 4.08 h
HT BkgdCl, Clearance ([9]; human): 5.666
Hep_Stab_Fail ([9]; human): 0
half-life at 1 μM ([9]; buffer): 5.28 h
HT BkgdCl, Slope [9]: -0.002833
No Cells BkgdCl, Slope [9]: -0.002187
Fstable.Med (human plasma [10]; both, human, 5 h, 10 μM): 0.989
Mean Stability (human plasma [10]; both, human, 5 h, 10 μM): 1.051
Stability (T5hr/ T1hr), Run-specific Avg (human plasma [10]; both, human, 5 h, 10 μM): 0.998
PPB_Stab_Fail (human plasma [10]; both, human, 5 h, 10 μM): 0
LOEC (human primary cells; [17]): 2.00 µM
LOEC (human primary cells; [18]): 2 µM

NS(=O)(=O)C(F)(F)C(F)(F)C(F)(F)C(F)(F)C(F)(F)C(F)(F)C(F)(F)C(F)(F)F [Perfluorooctanesulfonamide, reference compound]
fup (human plasma [1]): 0.0039
Css [2, 15]: 3.16 mg/L and 6.33 uM
Clhep [2]: 0.882 L/h
AED [2]: 0.3157 mg/kg/day
Fub [2]: 0.007091
Css [2, 16]: 6.33 µM
CLint [2]: 2094431 µL/min
hepatocyte CLint at 1 μM ([5]; hepatocytes, in vitro CLint): 11.9 µL/min/1e6 cells
fraction unbound at 5 h, 10 μM (in vitro [7]; Mean fu): 0.0039
In Vitro Clint [4]: 11.93 μL/min/10^6 cells
LOEC (human primary cells; [17]): 2.00 µM
LOEC (human primary cells; [18]): 2 µM

OCC(F)(F)OC(F)(F)C(F)(F)OC(F)(F)CO [1H,1H,8H,8H-Perfluoro-3,6-dioxaoctane-1,8-diol]
Css [2, 15]: 0.13 mg/L and 0.43 uM
Clhep [2]: 20.549 L/h
AED [2]: 16.1536 mg/kg/day
Fub [2]: 0.3762
Css [2, 16]: 0.43 µM
CLint [2]: 1179763 µL/min
half-life at 1 μM ([5]; hepatocytes): 3.44 h
hepatocyte CLint at 1 μM ([5]; hepatocytes, Bkgd Adj Clint): 6.72 µL/min/1e6 cells
hepatocyte CLint at 1 μM [5, 19]: 6.72 µL/min/1e6 cells
hepatocyte CLint at 1 μM ([5]; hepatocytes, Bkgd_adj_Clint): 6.72 µL/min/1e6 cells
hepatocyte CLint at 1 μM ([5]; hepatocytes, In Vitro Clint): 6.72 µL/min/1e6 cells
hepatocyte CLint at 1 μM [5, 20]: 6.72 µL/min/1e6 cells
hepatocyte CLint at 1 μM ([5]; hepatocytes, Unadj Clint): 6.72 µL/min/1e6 cells
hepatocyte CLint at 1 μM [5, 21]: 6.72 µL/min/1e6 cells
Linear Regression Results, Best-Fit Values, Slope [6]: -0.003361
Clint.1.Med ([6]; human, s9): 0
fraction unbound at 5 h, 10 μM (in vitro [7]; Fraction Unbound (fu)): 0.188
fraction unbound at 5 h, 10 μM (in vitro [7]; Fraction Unbound (fu), Run-specific Avg): 0.21
fraction unbound at 5 h, 10 μM (in vitro [7]; Mean Fu): 0.207
fraction unbound at 5 h, 10 μM (in vitro [7]; Mean fu): 0.207
Aqueous Fraction, Run-specific Avg (human plasma [8]; both, human, 5 h, 10 μM): 1857.99
Fup.Med (human plasma [8]; both, human, 5 h, 10 μM): 0.191
Fup.point (human plasma [8]; both, human, 5 h, 10 μM): 0.207
fup (human plasma [8]; both, human, 5 h, 10 μM): 0.2069
No Cells BkgdCl, Clearance [9]: 3.324
HT BkgdCl, Clearance ([9]; human): 0
Hep_Stab_Fail ([9]; human): 0
half-life at 1 μM ([9]; buffer): 6.95 h
HT BkgdCl, Slope [9]: -0.0009212
No Cells BkgdCl, Slope [9]: -0.00166
Time 1 hr, Run-specific Avg (human plasma [10]; both, human, 1 h, 10 μM): 8416.46
Fstable.Med (human plasma [10]; both, human, 5 h, 10 μM): 0.999
Mean Stability (human plasma [10]; both, human, 5 h, 10 μM): 1.067
Stability (T5hr/ T1hr), Run-specific Avg (human plasma [10]; both, human, 5 h, 10 μM): 1.023
Time 5 hr, Run-specific Avg (human plasma [10]; both, human, 5 h, 10 μM): 8614.09
PPB_Stab_Fail (human plasma [10]; both, human, 5 h, 10 μM): 0
LOEC (human primary cells; [17]): 7.00 µM
LOEC (human primary cells; [18]): 7 µM

C=CC(=O)OCC(F)(F)C(F)F [2,2,3,3-Tetrafluoropropyl acrylate]
Uncertain (human plasma [8]): Y
Fup.Med (human plasma [8]; both, human, 5 h, 10 μM): 1.93E-08
Fup.point (human plasma [8]; both, human, 5 h, 10 μM): 0.234
remaining at 5 h, 10 μM (in vitro [11]): 0%
Hep_Stab_Fail ([9]; human): 1
Unstable (human plasma [10]): Y
Fstable.Med (human plasma [10]; both, human, 5 h, 10 μM): 0.000712
PPB_Stab_Fail (human plasma [10]; both, human, 5 h, 10 μM): 1

FC(F)(F)C(F)(C(F)(F)F)C(F)(F)C(F)(F)CC1CO1 (stereo not drawn) [3-(Perfluoro-3-methylbutyl)-1,2-propenoxide]
remaining at 5 h, 10 μM (in vitro [11]): 0%
Hep_Stab_Fail ([9]; human): 1
PPB_Stab_Fail (human plasma [10]; both, human, 5 h, 10 μM): 1

Cc1ccc([N+](=O)[O-])cc1 [4-Nitrotoluene, 4-nitrotoluene, reference compound]
Mean Stability (T5hr/T1hr) (human plasma [12]; mean over all UC runs and replicates, human plasma): 0.816
Fstable.Med (human plasma [12]; median fraction stable in plasma, UC assay Level4): 0.779
Stability (T5hr/ T1hr), Run-specific Avg (human plasma [12]; run-specific average): 0.82 and 0.84 and 0.81 and 0.78
fraction unbound at 5 h, 10 μM ([13]; Fraction Unbound (fu), Run-specific Avg, run-specific average): 0.06
fraction unbound at 5 h, 10 μM ([13]; Mean Fu (fraction unbound), mean over all UC runs and replicates, human plasma): 0.0581
Fup.Med (human plasma [3]; median fraction unbound in plasma, UC assay Level4): 0.0679
Fup.point (human plasma [3]; point estimate of fraction unbound in plasma, UC assay Level4): 0.0612
Fraction Unbound (fu), Run-specific Avg (human plasma [3]; run-specific average): 0.0534 and 0.08

O=S(=O)([O-])C(F)(F)C(F)(F)C(F)(F)C(F)(F)C(F)(F)C(F)(F)C(F)(F)C(F)(F)F.[K+] [Potassium perfluorooctanesulfonate, reference compound]
fup (human plasma [1]; [14]): 0.0040
Css [2, 15]: 15.71 mg/L and 31.41 uM
Clhep [2]: 0.138 L/h
AED [2]: 0.2229 mg/kg/day
Fub [2]: 0.007273
Css [2, 16]: 31.41 µM
CLint [2]: 317764 µL/min
Mean fu (human plasma [3]): 0.004
In Vitro Clint [4, 14]: 1.81 μL/min/10^6 cells
LOEC (human primary cells; [17]): 7.00 µM
LOEC (human primary cells; [18]): 7 µM
